One block for each compound: values may come before it. The source made the active and inactive calls. The rule behind the calls is not given here.
What was measured:
[1] = system: Hepatitis B virus; assay: Antiviral activity against HBV in adriamycin-resistant HepD2 cells with RTM20V and RTV180M mutation assessed as inhibition of viral DNA replication; assay type: functional, organism-based
[2] = Cytotoxicity against HBV transfected human HepG2 cells by MTT assay; assay type: cell-based
[3] = system: Hepatitis B virus; assay: Antiviral activity against HBV in human HepW10 cells assessed as inhibition of viral 2.4/2.1RNA replication; assay type: functional, organism-based
[4] = system: Hepatitis B virus; assay: Antiviral activity against HBV in adriamycin-resistant wild type HepW10 cells assessed as inhibition of viral DNA replication; assay type: functional, organism-based
[5] = system: Hepatitis B virus; assay: Inhibition of HBV promoter in human HepG2(2.2.15) cells by luciferase reporter gene assay; assay type: functional, organism-based
[6] = system: Hepatitis B virus; assay: Antiviral activity against HBV in human HepW10 cells assessed as inhibition of viral pre genomic RNA replication; assay type: functional, organism-based
[7] = system: Hepatitis B virus; assay: Antiviral activity against HBV in human HepG2(2.2.15) cells assessed as inhibition of viral pre-genomic RNA replication; assay type: functional, organism-based
[8] = system: Hepatitis B virus; assay: Antiviral activity against HBV in mouse ayw wild type HBV-Met cells assessed as inhibition of viral DNA replication; assay type: functional, organism-based
[9] = system: Hepatitis B virus; assay: Effect on virus RNA stability on doxycyclin-induced HBV pre genomic RNA production in Met-On-TRE HBV cells treated with 3 uM drug after doxycycline removal; assay type: functional, organism-based
[10] = system: Hepatitis B virus; assay: Antiviral activity against HBV in HBV-Met cells assessed as inhibition of viral pre genomic RNA replication; assay type: functional, organism-based
[11] = system: Hepatitis B virus; assay: Antiviral activity against HBV in human HepG2(2.2.15) cells assessed as inhibition of viral 2.4/2.1RNA replication; assay type: functional, organism-based
[12] = system: Hepatitis B virus; assay: Inhibition of HBV promoter in human HepG2 cells by luciferase reporter gene assay; assay type: functional, organism-based
[13] = Cytotoxicity against HBV transfected human ayw wild type HepG2(2.2.15) cells by MTT assay; assay type: cell-based; settings: HBV-transfected ayw wild type HepG2(2.2.15) cells
[14] = Cytotoxicity against HBV transfected human adriamycin-resistant HepD2 cells with RTM20V and RTV180M mutation by MTT assay; assay type: cell-based
[15] = system: Hepatitis B virus; assay: Antiviral activity against HBV in human HepD2 cells assessed as inhibition of viral 2.4/2.1RNA replication; assay type: functional, organism-based
[16] = Cytotoxicity against HBV transfected human adriamycin-resistant wild type HepW10 cells by MTT assay; assay type: cell-based
[17] = system: Hepatitis B virus; assay: Antiviral activity against HBV in ayw wild type HepG2(2.2.15) cells assessed as inhibition of viral DNA replication; assay type: functional, organism-based
[18] = system: Hepatitis B virus; assay: Antiviral activity against HBV in human HepD2 cells assessed as inhibition of viral pre genomic RNA replication; assay type: functional, organism-based
[19] = system: Hepatitis B virus; assay: Antiviral activity against HBV in mouse HBV-Met cells assessed as inhibition of viral 2.4/2.1RNA replication; assay type: functional, organism-based
[20] = system: Human gammaherpesvirus 4; assay: Antiviral activity against Epstein-Barr virus; assay type: functional, organism-based
[21] = system: Human immunodeficiency virus; assay: Antiviral activity against HIV; assay type: functional, organism-based; settings: Human immunodeficiency virus 1
[22] = system: Hepatitis B virus; assay: Antiviral activity against HBV assessed as inhibition of viral replication; assay type: functional, organism-based
[23] = system: human papillomavirus 11; assay: Antiviral activity against human papilloma virus 11; assay type: functional, organism-based
[24] = system: Human alphaherpesvirus 1; assay: Antiviral activity against HSV1; assay type: functional, organism-based
[25] = system: Hepatitis C virus; assay: Antiviral activity against hepatitis C virus; assay type: functional, organism-based, Hepacivirus hominis
[26] = system: HepG2; assay: Down regulation of HNH4-alpha in human HepG2 cells expressing HBV at 0.3 uM by Western blotting; assay type: functional, cell-based
[27] = system: HepG2; assay: Decrease in binding of HBV promoter preC/C-EnhII to HNF3 in human HepG2 cells; assay type: cell-based
[28] = system: HepG2 2.2.15; assay: Decrease in binding of HBV promoter preC/C-EnhII to human HNF4-1 in HepG2(2.2.15) cells; assay type: cell-based
[29] = system: HepG2; assay: Decrease in binding of HBV promoter preC/C-EnhII to HNF4-2 in human HepG2 cells; assay type: cell-based
[30] = system: Hepatitis B virus; assay: Effect on HBV viral core protein degradation on cyclohexamide terminated cellular protein synthesis in human HepG2(2.2.15) cells at 0.3 uM; assay type: functional, organism-based
[31] = system: HepG2; assay: Decrease in binding of HBV promoter preC/C-EnhII to HNF4-1 in human HepG2 cells; assay type: cell-based
[32] = system: HepG2 2.2.15; assay: Decrease in binding of HBV promoter preC/C-EnhII to human HNF4-2 in HepG2(2.2.15) cells; assay type: cell-based
[33] = system: HepG2; assay: Down regulation of HNH3-beta in human HepG2 cells expressing HBV at 0.3 uM by Western blotting; assay type: functional, cell-based
[34] = Down regulation of HNH3-alpha mRNA in human HepG2(2.2.15) cells expressing HBV at 0.3 uM by Northern blotting; assay type: functional, cell-based
[35] = system: Hepatitis B virus; assay: Effect on virus RNA stability on doxycyclin-induced HBV pre genomic RNA production in Met-On-TRE HBV cells treated with 0.3 uM drug after doxycycline removal; assay type: functional, organism-based
[36] = Down regulation of HNH4-alpha in human HepG2(2.2.15) cells expressing HBV at 0.3 uM by Western blotting; assay type: functional, cell-based
[37] = Down regulation of HNH3-beta in human HepG2(2.2.15) cells expressing HBV at 0.3 uM by Western blotting; assay type: functional, cell-based
[38] = system: HepG2; assay: Decrease in binding of HBV promoter preC/C-EnhII to FTF2 in human HepG2 cells; assay type: cell-based
[39] = system: Cytomegalovirus; assay: Inhibition of CMV promoter in human HepG2(2.2.15) cells by luciferase reporter gene assay after 16 to 24 hrs; assay type: functional, organism-based; settings: TDE = time-dependent effect
[40] = system: Hepatitis B virus; assay: Decrease in HBV RNA in human HepG2 cells at 2 uM after 18 to 24 hrs by time course study; assay type: functional, organism-based
[41] = system: Hepatitis B virus; assay: Decrease in HBV DNA level in human HepG2 cells at 2 uM after 48 hrs by time course study; assay type: functional, organism-based
[42] = system: HepG2 2.2.15; assay: Decrease in binding of HBV promoter preC/C-EnhII to human HNF3 in HepG2(2.2.15) cells; assay type: cell-based
[43] = system: HepG2 2.2.15; assay: Decrease in binding of HBV promoter preC/C-EnhII to human FTF in HepG2(2.2.15) cells; assay type: cell-based
[44] = system: Hepatitis B virus; assay: Decrease in HBV protein level in human HepG2 cells at 2 uM after 18 to 24 hrs by time course study; assay type: functional, organism-based

SMILES: Nc1ccn([C@@H]2CS[C@H](CO)O2)c(=O)n1 [LAMIVUDINE]
IC50 [1]: > 3 µM | CC50 [2]: 100 µM | Activity [3]: inactive | IC50 [4]: 0.1 µM | IC50 [5]: 0.08 µM | Activity [6]: inactive | Activity [7]: inactive | IC50 [8]: 0.2 µM | Activity [9]: inactive | Activity [10]: inactive | Activity [11]: inactive | IC50 [12]: > 1 µM | CC50 [13]: > 100 µM | CC50 [14]: > 100 µM | Activity [15]: inactive | CC50 [16]: > 100 µM | IC50 [17]: 0.05 µM | Activity [18]: inactive | Activity [19]: inactive

IC50 [20]: 11 µM | IC50 [21]: 4 µM | IC50 [22]: 0.08 µM | IC50 [5]: 0.08 µM | IC50 [23]: 0.2 µM | IC50 [24]: 0.29 µM | IC50 [12]: > 1 µM | IC50 [25]: 1 µM
SMILES: O=C1NCc2c1cc1ccc3c(c1c2-c1ccc2c(c1)OCO2)OCO3

SMILES: O=c1[nH][nH]c(=O)c2c(-c3ccc4c(c3)OCO4)c3c4c(ccc3cc12)OCO4
Activity [26]: inactive | Activity [27]: inactive | Activity [28]: Active | IC50 [20]: > 25 µM | IC50 [1]: 0.03 µM | Activity [29]: inactive | Activity [30]: inactive | Activity [31]: inactive | CC50 [2]: 29 µM | Activity [32]: Active | Activity [33]: Active | Activity [34]: inactive | IC50 [21]: 15 µM | IC50 [3]: > 3 µM | IC50 [22]: 0.1 µM | Activity [35]: inactive | IC50 [4]: 0.2 µM | IC50 [5]: 0.08 µM | IC50 [6]: 0.4 µM | IC50 [23]: 5.8 µM | IC50 [7]: 0.3 µM | Activity [36]: Active | IC50 [8]: 0.3 µM | IC50 [24]: 1.2 µM | Activity [37]: Active | IC50 [10]: 0.5 µM | Activity [38]: Active | IC50 [11]: 0.9 µM | IC50 [12]: > 1 µM | Activity [39]: tde | CC50 [13]: 9 µM | CC50 [14]: 12 µM | Activity [40]: Active | IC50 [15]: 1.5 µM | Activity [41]: Active | Activity [42]: Active | Activity [43]: Active | CC50 [16]: 13 µM | Activity [44]: Active | IC50 [17]: 0.08 µM | IC50 [18]: 0.09 µM | IC50 [19]: 1 µM | IC50 [25]: 10 µM
